Test results as given in article PMC7795425, “Synthesis and Biological Activity of Brassinosteroid Analogues with a Nitrogen-Containing Side Chain” (International Journal of Molecular Sciences, 2020).
“Also recorded” adds a separate entry of the source.

Experiments:
[1] = Calcein AM cytotoxicity assay, MCF7; type: cell-based; details: human, MCF7 breast carcinoma cells (estrogen-sensitive), MCF7, 72 h, IC50 > 50 µM means inactive, read-out: Cytotoxic activity IC50
Method: (§1) The effect of the prepared BRs derivatives on the viability (in Calcein AM assays) of BJ human fibroblasts (as an example of a “normal” cell line) and human cancer cell lines of various histopathological origins, including: T-lymphoblastic leukemia CEM, breast carcinoma MCF7 and cervical carcinoma cell line HeLa, was also studied. Cells of all these lines were exposed to six 3-fold dilutions of each drug for 72 h prior to determination of cell survival. The IC50 (concentration leading to 50% inhibition of viability) values obtained from the Calcein AM cytotoxicity assay were calculated. […] All tested BR nitrogen-containing derivatives had no detectable activity, even when tested in concentrations of up to 50 µM.
(§2) The screening cell lines: T-lymphoblastic leukemia CEM; breast carcinoma MCF7 (estrogen-sensitive); cervical carcinoma cell line HeLa; and human foreskin fibroblasts BJ, were obtained from the American Type Culture Collection (Manassas, VA, USA). Cells were cultured in DMEM (Dulbecco’s Modified Eagle Medium, Sigma, St. Louis, MO, USA). Media used were supplemented with 10% fetal bovine serum, 2mM L-glutamine and 1% penicillin–streptomycin. The cell lines were maintained under standard cell culture conditions at 37 °C and 5% CO2 in a humid environment.
(§3) Cells were subcultured twice or three times a week using the standard trypsinization procedure. Cytotoxicity in cancer cell lines after 72 h was determined as described earlier. Control cultures were treated with DMSO alone, and the final concentration of DMSO in the mixture never exceeded 0.6%. Six serial 3-fold dilutions of the test substances were added at time zero in 20 μL aliquots to the microtiter plate wells and the highest final concentration in the wells was 50 μM.
(§4) Table S3: Cytotoxic activities, IC50 (µM/L)a, of compounds in three tumor and one normal fibroblast
(§5) Compound CEM MCF7 HeLa BJ
(§6) a The lowest concentration that kills 50% of cells.
(§7) b Increase of cell proliferation.

[2] = test system: Arabidopsis thaliana L. (Columbia ecotype, Col-0) seedlings; assay: Arabidopsis root sensitivity bioassay; type: in vivo; details: for root length, mean: 7-day-old seedlings; for inhibitory effect on Arabidopsis root growth: tested 0.1 to 10 nM, selected derivatives also 100 nM
Method: Several bioassays such as the first bean internode, root growth and rice lamina inclination have been developed to evaluate the growth-promoting activity of BR derivatives. In this work, the activity of new BR analogues was evaluated using the Arabidopsis root sensitivity test because of its simplicity and high sensitivity for BRs.. The characteristic effect of exogenously applied BRs on light-grown Arabidopsis is dose-dependent—BRs in higher concentrations cause inhibition of root growth; vice versa, low concentrations are stimulating. The results obtained for 24-epiBL, which was used as a positive control, and the BR derivatives are shown in Figure 2, Figure 3 and Figure S21. […] A similar trend was shown for dimethylammonium hydrochloride 22a and morpholinium hydrochloride 22e with a long side chain. For numerical values of the average, SD and p-value, see Table S2.
The biological activity of the new BRs derivatives was tested by an Arabidopsis sensitivity bioassay which was performed according to [28]. Briefly, seedlings of Arabidopsis thaliana L. (Columbia ecotype, Col-0) were stratified for 2 days at 4 °C and germinated on vertical half-strength Murashige and Skoog (1% w/v sucrose) agar at 22 °C in a 16 h/8 h light–dark cycle. The plates contained concentrations of 24-epiBL (as positive control) and BR derivatives ranging from 0.1 to 10 nM, respectively 100 nM (for selected derivatives only). After 7 days, roots were straightened on solid media plates and scanned with an Epson high-resolution scanner. The entire root length was measured with ImageJ (http://rsbweb.nih.gov/ij/). For each treatment, more than 15 seedlings were analyzed in two biological repeats, and p-values were calculated with the two-tailed Student t-test using Excel software.
(§8) Figure 2 Effect of selected brassinosteroid derivatives on the inhibition of Arabidopsis root length. Seven-day-old Arabidopsis thaliana seedlings (Columbia ecotype, Col-0) were treated with DMSO as control/24epiBL/BR short side chain derivatives; (A)—amides, (B)—amines, (C)—ammonium hydrochlorides. For each treatment, more than 15 seedlings were analyzed in two biological repeats. Error bars represent SD. Asterisks represent significant changes (t-test); * represents p-value < 0.05, in comparison to control.
as §8, with “Figure 3” for “Figure 2”, “control/24epiBL/BR long” for “control/24epiBL/BR short”, “(A)—amides, (B)—ammonium” for “(A)—amides, (B)—amines, (C)—ammonium”
Table S2: Data for figure 2, 3, and S21. P value <0.05(t-test), comparison to control.
control (mean ± SD) 16.3 ± 1.21
*only selected compounds were tested
mean(mm) SD t-test mean (mm) SD t-test mean (mm) SD t-test mean (mm) SD t-test
(1 picture or pasted object on this page, not shown here)

[3] = Calcein AM cytotoxicity assay, CEM; type: cell-based; details: human, CEM T-lymphoblastic leukemia cells, IC50 > 50 µM means inactive, read-out: Cytotoxic activity IC50
Method: as §1, §2, §3, §4, §5, §6, §7

[4] = Calcein AM cytotoxicity assay, BJ; type: cell-based; details: human, BJ foreskin fibroblasts (normal cell line), IC50 > 50 µM means inactive, read-out: Cytotoxic activity IC50
Method: as §1, §2, §3, §4, §5, §6, §7

[5] = Calcein AM cytotoxicity assay, HeLa; type: cell-based; details: human, HeLa cervical carcinoma cells, IC50 > 50 µM means inactive, read-out: Cytotoxic activity IC50
Method: as §1, §2, §3, §4, §5, §6, §7

[6] = 100 nM (only selected compounds), control 14.61 ± 0.85

Compound	IC50 at 72 h [1]	melting point	root length, mean ([2]; 0.1 nM, control 16.3 ± 1.21)	root length, mean ([2]; 1 nM, control 16.3 ± 1.21)	root length, mean ([2]; 10 nM, control 16.3 ± 1.21)	IC50 at 72 h [3]	IC50 at 72 h [4]	IC50 at 72 h [5]	elongation of roots (growth-promoting activity) compared to the control ([2]; low concentrations (0.1 and 1 nM))	root length, mean [2, 6]	inhibitory effect on Arabidopsis root growth [2]
C[C@H](C(=O)N1CCCC1)[C@H]1CC[C@H]2[C@@H]3CC(=O)[C@H]4C[C@H](O)[C@H](O)C[C@]4(C)[C@H]3CC[C@]12C [8c, 1-((20S)-2α,3α-dihydroxy-6-oxo-5α-pregnane-20-carbonyl)pyrrolidine]	> 50 µM	> 180 °C (dec.)	17.61 mm	18.58 mm	15.97 mm	> 50 µM	> 50 µM	> 50 µM			
C[C@H](C(=O)N1CCCCC1)[C@H]1CC[C@H]2[C@@H]3CC(=O)[C@H]4C[C@H](O)[C@H](O)C[C@]4(C)[C@H]3CC[C@]12C [8d, 1-((20S)-2α,3α-dihydroxy-6-oxo-5α-pregnane-20-carbonyl)piperidine]	> 50 µM	> 230 °C (dec.)	17.11 mm	15.97 mm	14.18 mm	> 50 µM	> 50 µM	> 50 µM			
C[C@H](C(=O)N1CCOCC1)[C@H]1CC[C@H]2[C@@H]3CC(=O)[C@H]4C[C@H](O)[C@H](O)C[C@]4(C)[C@H]3CC[C@]12C [8e, 4-((20S)-2α,3α-dihydroxy-6-oxo-5α-pregnane-20-carbonyl)morpholine]	> 50 µM	> 270 °C (dec.)	17.77 mm	17.44 mm	15.16 mm	> 50 µM	> 50 µM	> 50 µM	slight elongation of roots; also recorded: interesting growth-promoting activity		
C[C@H](CN(C)C)[C@H]1CC[C@H]2[C@@H]3CC(=O)[C@H]4C[C@H](O)[C@H](O)C[C@]4(C)[C@H]3CC[C@]12C [15a, (20S)-20-(N,N-dimethylaminomethyl)-2α,3α-dihydroxy-5α-pregnane-6-one]	> 50 µM	219 to 221 °C	14.83 mm	14.29 mm	14.34 mm	> 50 µM	> 50 µM	> 50 µM			
CCN(CC)C[C@@H](C)[C@H]1CC[C@H]2[C@@H]3CC(=O)[C@H]4C[C@H](O)[C@H](O)C[C@]4(C)[C@H]3CC[C@]12C [15b, (20S)-20-(N,N-diethylaminomethyl)-2α,3α-dihydroxy-5α-pregnane-6-one]	> 50 µM	> 190 °C (dec.)	14.93 mm	16.13 mm	14.67 mm	> 50 µM	> 50 µM	> 50 µM		13.903 mm	
C[C@H](CN1CCCC1)[C@H]1CC[C@H]2[C@@H]3CC(=O)[C@H]4C[C@H](O)[C@H](O)C[C@]4(C)[C@H]3CC[C@]12C [15c, (20S)-20-(pyrrolidin-1-ylmethyl)-2α,3α-dihydroxy-5α-pregnane-6-one]	> 50 µM	> 240 °C (dec.)	16.78 mm	14.37 mm	17.21 mm	> 50 µM	> 50 µM	> 50 µM			
C[C@H](CN1CCCCC1)[C@H]1CC[C@H]2[C@@H]3CC(=O)[C@H]4C[C@H](O)[C@H](O)C[C@]4(C)[C@H]3CC[C@]12C [15d, (20S)-20-(piperidin-1-ylmethyl)-2α,3α-dihydroxy-5α-pregnane-6-one]	> 50 µM	> 210 °C (dec.)	14.18 mm	14.11 mm	15.15 mm	> 50 µM	> 50 µM	> 50 µM			
C[C@H](CN1CCOCC1)[C@H]1CC[C@H]2[C@@H]3CC(=O)[C@H]4C[C@H](O)[C@H](O)C[C@]4(C)[C@H]3CC[C@]12C [15e, (20S)-20-(morpholin-4-ylmethyl)-2α,3α-dihydroxy-5α-pregnane-6-one]	> 50 µM	> 210 °C (dec.)	17.21 mm	17.61 mm	16.21 mm	> 50 µM	> 50 µM	> 50 µM		13.731 mm	
C[C@H]([C@@H](O)[C@H](O)C(=O)N(C)C)[C@H]1CC[C@H]2[C@@H]3CC(=O)[C@H]4C[C@H](O)[C@H](O)C[C@]4(C)[C@H]3CC[C@]12C [20a, N,N-dimethyl-(20S,22R,23S)-2α,3α,22,23-tetrahydroxy-6-oxo-5α-cholan-24-amide]	> 50 µM	> 210 °C (dec.)	16.13 mm	14.67 mm	14.18 mm	> 50 µM	> 50 µM	> 50 µM		15.192 mm	weak inhibitory effect
CCN(CC)C(=O)[C@@H](O)[C@H](O)[C@@H](C)[C@H]1CC[C@H]2[C@@H]3CC(=O)[C@H]4C[C@H](O)[C@H](O)C[C@]4(C)[C@H]3CC[C@]12C [20b, N,N-diethyl-(20S,22R,23S)-2α,3α,22,23-tetrahydroxy-6-oxo-5α-cholan-24-amide]	> 50 µM	> 160 °C (dec.)	16.78 mm	15.32 mm	14.99 mm	> 50 µM	> 50 µM	> 50 µM			
C[C@H]([C@@H](O)[C@H](O)C(=O)N1CCCC1)[C@H]1CC[C@H]2[C@@H]3CC(=O)[C@H]4C[C@H](O)[C@H](O)C[C@]4(C)[C@H]3CC[C@]12C [20c, 1-((20S,22R,23S)-2α,3α,22,23-tetrahydroxy-6-oxo-5α-cholan-24-oyl)pyrrolidine]	> 50 µM	> 200 °C (dec.)	15.97 mm	15.81 mm	15.15 mm	> 50 µM	> 50 µM	> 50 µM		14.873 mm	weak inhibitory effect
